The target of one experiment is T1, PI3K alfa (Homo sapiens, UniProt P42336).
T1 construct: His tag (C); made in house; host or cells: baculovirus BV1075; Tn5 (Trichoplusia ni) or TiniPro insect cells
The experiment is described as follows: PI3K alpha kinase assay (Kinase-Glo luminescence). The settings on record: read-out: EPK_PI3Kalfa/IC50. The class given is biochemical. As for the experimental part: (§1) In a more preferred assay, the kinase reaction is performed in a final volume of 10 μL per well of a low volume non binding CORNING, 384 well black plate (Cat. No. #3676). The final concentrations of ATP and phosphatidyl inositol (PI) in the assay are 1 μM and 10 μg/mL respectively. The reaction is started by the addition of ATP.
(§2) The components of the assay are added per well as follows:
(§3) 50 nL test compounds in 90% DMSO per well, in columns 1-20, 8 concentrations (⅓ and 1/3.33 serial dilution step) in single. • Low control: […] of 90% DMSO in half the wells of columns 23-24 (0.45% in final). • High control: 50 nL of reference compound (e.g. compound of Example 7 in WO 2006/122806) in the other half of columns 23-24 (2.5 μM in final). • Standard: 50 nL of reference compound as just mentioned diluted as the test compounds in columns 21-22 • 20 mL ‘buffer’ are prepared per assay: • 200 μL of 1M TRIS HCl pH7.5 (10 mM in final) • 60 μL of 1M MgCl2 (3 mM in final) • 500 μL of 2M NaCl (50 mM in final) • 100 μL of 10% CHAPS (0.05% in final) • 200 μL of 100 mM DTT (1 mM in final) • 18.94 mL of nanopure water • 10 mL ‘PI’ are prepared per assay: • 200 μL of 1 mg/ml L-alpha-Phosphatidylinositol (Liver Bovine, Avanti Polar Lipids Cat. No. 840042C MW=909.12) prepared in 3% OctylGlucoside (10 μg/ml in final) • 9.8 mL of ‘buffer’ • 10 mL ‘ATP’ are prepared per assay: • 6.7 μL of 3 mM stock of ATP giving a final concentration of 1 μM per well • 10 mL of ‘buffer’ • 2.5 mL of each PI3K construct are prepared per assay in ‘PI’ with the following final concentration: • 10 nM PI3K alfa EMV B1075 • 25 nM beta EMV BV949 • 10 nM delta EMV BV1060 • 150 nM gamma EMV BV950 • 5 μL of ‘PI/PI3K’ are added per well. • 5 μl ‘ATP’ are added per well to start the reaction. • The plates are then incubated at room temperature for 60 minutes (alfa, beta, delta) or 120 minutes (gamma). • The reaction is terminated by the addition of 10 μL Kinase-Glo (Promega Cat. No. #6714). • The assay plates are read after 10 minutes in Synergy 2 reader (BioTek, Vermont USA) with an integration time of 100 milliseconds and sensitivity set to 191. • Output: The High control is around 60′000 counts and the Low control is 30′000 or lower • This luminescence assay gives a useful Z′ ratio between 0.4 and 0.7
Two different constructs, BV 1052 and BV 1075, are used to generate the PI3 Kinase α proteins for compound screening.
PI3K alpha is purified in three chromatographic steps: immobilized metal affinity chromatography on a Ni Sepharose resin (GE Healthcare, belonging to General Electric Company, Fairfield, Conn., USA), gel filtration utilizing a Superdex 200 26/60 column (GE Healthcare), and finally a cation exchange step on a SP-XL column (GE Healthcare). All buffers are chilled to 4° C. and lysis is performed chilled on ice. Column fractionation is performed rapidly at room temperature.
(§4) IC50 is determined by a four parameter curve fitting routine that comes along with “excel fit”. A 4 Parameter logistic equation is used to calculate IC50 values (IDBS XLfit) of the percentage inhibition of each compound at 8 concentrations (usually 10, 3.0, 1.0, 0.3, 0.1, 0.030, 0.010 and 0.003 μM). Alternatively, IC50 values are calculated using idbsXLfit model 204, which is a 4 parameter logistic model.
On the technique in general: Kinase-Glo reads ATP consumption through a luciferase reaction.

Another experiment has as its target T2, mTOR (Homo sapiens, UniProt P42345).
T2 construct: purchased Invitrogen Corporation (Carlsbad/Calif., USA) PV4753
Briefly: Biochemical assay for m-TOR by TR-FRET. The settings on record: read-out: EPK_mTOR/IC50. As for the experimental part:
Biochemical Assay for m-TOR by TR-FRET.
Assay components are purchased from Invitrogen Corporation (Carlsbad/Calif., USA): GFP-4EBP1 (Cat. No. PV4759), Tb3+-α-p4EBP1 [pThr46] Antibody (Cat. No. PV4757), proprietary TR-FRET dilution buffer (Cat. No. PV3574), mTOR protein (Cat. No. PV4753).
50 nL of compound dilutions (final concentration of 10, 3.0, 1.0, 0.3, 0.1, 0.03, 0.01 and 0.003 μM) are dispensed onto black 384-well low volume non-binding polystyrene (Cat. No. NBS#3676, Corning, Lowell/Mass., USA). Then 5 μL of ATP (8 μM final concentration) and GFP-4EBP1 (400 nM final concentration) with 5 μL mTOR proteins (0.5 nM final concentration) are incubated at rt. The standard reaction buffer for the TR-FRET mTOR assay contained 50 mM HEPES pH 7.5, 10 mM MnCl2, 50 mM NaCl, 1 mM EGTA, 1 mM DTT. Reactions were stopped with 10 μL of a mixture of EDTA containing the Tb3+-α-p4EBP1[pT46] detection Ab (0.5 nM) in TR-FRET dilution buffer (proprietary to IVG). Plates are read 15 mins later in a Synergy2 reader using an integration time of 0.2 seconds and a delay of 0.1 seconds. Control for the 100% inhibition of the kinase reaction is performed by replacing the mTOR kinase by the standard reaction buffer. The control for the 0% inhibition is given by the solvent vehicle of the compounds (90% DMSO in H2O). A standard compound is used as a reference compound and included in all assay plates in the form of 16 dilution points in duplicate.
(In TR-FRET formats the signal depends on donor and acceptor labels being close together.)

A further experiment concerns the target T3, PI3K delta (Homo sapiens, UniProt O00329).
T3 construct: for the full-length p110-d subunit are generated and fused by overlapping PCR; His tag (C); made in house; host or cells: baculovirus BV1060; Tn5 (Trichoplusia ni) or TiniPro insect cells
Briefly: PI3K delta kinase assay (Kinase-Glo luminescence). The settings on record: read-out: EPK_PI3Kdelta/IC50. The class given is biochemical. As for the experimental part: as §1, §2, §3
PI3Kδ BV-1060 p85(iSH2)-Gly Linker-p110d(Full-Length)-C-Term His Tag
PI3K delta is purified in three chromatographic steps: immobilized metal affinity chromatography on a Ni Sepharose resin (GE Healthcare), gel filtration utilizing a Superdex 200 26/60 column (GE Healthcare), and finally a anion exchange step on a Q-HP column (GE Healthcare). All buffers are chilled to 4° C. and lysis is performed chilled on ice. Column fractionation is performed rapidly at room temperature. Typically frozen insect cells are lysed in a hypertonic lysis buffer and applied to a prepared IMAC column. The resin is washed with 3-5 column volumes of lysis buffer, followed by 3-5 column volumes wash buffer containing 45 mM imidazole, and the target protein is then eluted with a buffer containing 250 mM imidazole. Fractions are analyzed by Coomassie stained SDS-PAGE gels, and fractions containing the target protein are pooled and applied to a prepared GFC column. Fractions from the GFC column are analyzed by Coomassie stained SDS-PAGE gels, and fractions containing the target protein are pooled. The pool from the GFC column is diluted into a low salt buffer and applied to a prepared Q-HP column. The column is washed with low salt buffer until a stable A280 baseline absorbance is achieved, and eluted using a 20 column volume gradient from 0 mM NaCl to 500 mM NaCl. Again, fractions from the Q-HP column are analyzed by Coomassie stained SDS-PAGE gels, and fractions containing the target protein are pooled. The final pool is dialyzed into a storage buffer containing 50% glycerol and stored at −20° C. The final pool is assayed for activity in the phosphoinostitol kinase assay. […]

Another experiment has as its target T4, PI3K beta (Homo sapiens, UniProt P42338).
T4 construct: for the full-length p110-b subunit are generated and fused by overlapping PCR; His tag (C); made in house; host or cells: baculovirus BV949; Tn5 (Trichoplusia ni) or TiniPro insect cells
The experiment is described as follows: PI3K beta kinase assay (Kinase-Glo luminescence). The settings on record: read-out: EPK_PI3Kbeta/IC50. The format is biochemical. As for the experimental part: as §1, §2, §3
PI3Kβ BV-949 p85(iSH2)-Gly linker-r 110b(full-length)-C-term His Tag
PI3K beta is purified in two chromatographic steps: immobilized metal affinity chromatography (IMAC) on a Ni Sepharose resin (GE Healthcare) and gel filtration (GFC) utilizing a Superdex 200 26/60 column (GE Healthcare). All buffers are chilled to 4° C. and lysis is performed chilled on ice. Column fractionation is performed rapidly at room temperature.
as §4

pIC50: −log10 of the molar value.

T1 sequence (P42336 with tags, fused parts or gaps limits assumed): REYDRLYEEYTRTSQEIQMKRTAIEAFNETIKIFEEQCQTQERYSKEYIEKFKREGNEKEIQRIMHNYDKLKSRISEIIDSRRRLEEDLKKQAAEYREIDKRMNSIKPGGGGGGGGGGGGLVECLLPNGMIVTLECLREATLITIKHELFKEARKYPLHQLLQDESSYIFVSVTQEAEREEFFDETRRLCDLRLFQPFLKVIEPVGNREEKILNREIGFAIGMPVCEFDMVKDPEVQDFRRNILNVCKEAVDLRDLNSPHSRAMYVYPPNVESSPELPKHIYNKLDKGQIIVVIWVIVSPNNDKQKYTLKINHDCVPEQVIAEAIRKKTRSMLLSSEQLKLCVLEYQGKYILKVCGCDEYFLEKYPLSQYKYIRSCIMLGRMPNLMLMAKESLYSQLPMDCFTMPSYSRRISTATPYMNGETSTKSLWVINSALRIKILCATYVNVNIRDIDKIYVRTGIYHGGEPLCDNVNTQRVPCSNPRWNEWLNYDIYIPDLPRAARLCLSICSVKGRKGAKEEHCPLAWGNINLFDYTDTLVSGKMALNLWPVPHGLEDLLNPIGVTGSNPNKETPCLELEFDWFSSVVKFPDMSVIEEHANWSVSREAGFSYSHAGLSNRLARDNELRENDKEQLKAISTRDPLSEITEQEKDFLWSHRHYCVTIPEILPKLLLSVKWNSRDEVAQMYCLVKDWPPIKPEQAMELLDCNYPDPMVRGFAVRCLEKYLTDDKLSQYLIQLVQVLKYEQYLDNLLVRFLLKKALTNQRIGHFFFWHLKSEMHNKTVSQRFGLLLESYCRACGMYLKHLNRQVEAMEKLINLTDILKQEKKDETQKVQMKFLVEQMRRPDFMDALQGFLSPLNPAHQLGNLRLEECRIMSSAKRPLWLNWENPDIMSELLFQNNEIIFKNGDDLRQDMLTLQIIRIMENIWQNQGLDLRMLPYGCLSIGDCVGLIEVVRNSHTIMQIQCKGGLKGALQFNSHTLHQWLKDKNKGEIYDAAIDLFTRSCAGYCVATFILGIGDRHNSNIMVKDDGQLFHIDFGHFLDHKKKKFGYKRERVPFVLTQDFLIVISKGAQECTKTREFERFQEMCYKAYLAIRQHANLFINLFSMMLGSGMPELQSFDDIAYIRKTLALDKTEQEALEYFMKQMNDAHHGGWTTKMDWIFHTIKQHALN
T3 sequence (O00329 with tags, fused parts or gaps limits assumed): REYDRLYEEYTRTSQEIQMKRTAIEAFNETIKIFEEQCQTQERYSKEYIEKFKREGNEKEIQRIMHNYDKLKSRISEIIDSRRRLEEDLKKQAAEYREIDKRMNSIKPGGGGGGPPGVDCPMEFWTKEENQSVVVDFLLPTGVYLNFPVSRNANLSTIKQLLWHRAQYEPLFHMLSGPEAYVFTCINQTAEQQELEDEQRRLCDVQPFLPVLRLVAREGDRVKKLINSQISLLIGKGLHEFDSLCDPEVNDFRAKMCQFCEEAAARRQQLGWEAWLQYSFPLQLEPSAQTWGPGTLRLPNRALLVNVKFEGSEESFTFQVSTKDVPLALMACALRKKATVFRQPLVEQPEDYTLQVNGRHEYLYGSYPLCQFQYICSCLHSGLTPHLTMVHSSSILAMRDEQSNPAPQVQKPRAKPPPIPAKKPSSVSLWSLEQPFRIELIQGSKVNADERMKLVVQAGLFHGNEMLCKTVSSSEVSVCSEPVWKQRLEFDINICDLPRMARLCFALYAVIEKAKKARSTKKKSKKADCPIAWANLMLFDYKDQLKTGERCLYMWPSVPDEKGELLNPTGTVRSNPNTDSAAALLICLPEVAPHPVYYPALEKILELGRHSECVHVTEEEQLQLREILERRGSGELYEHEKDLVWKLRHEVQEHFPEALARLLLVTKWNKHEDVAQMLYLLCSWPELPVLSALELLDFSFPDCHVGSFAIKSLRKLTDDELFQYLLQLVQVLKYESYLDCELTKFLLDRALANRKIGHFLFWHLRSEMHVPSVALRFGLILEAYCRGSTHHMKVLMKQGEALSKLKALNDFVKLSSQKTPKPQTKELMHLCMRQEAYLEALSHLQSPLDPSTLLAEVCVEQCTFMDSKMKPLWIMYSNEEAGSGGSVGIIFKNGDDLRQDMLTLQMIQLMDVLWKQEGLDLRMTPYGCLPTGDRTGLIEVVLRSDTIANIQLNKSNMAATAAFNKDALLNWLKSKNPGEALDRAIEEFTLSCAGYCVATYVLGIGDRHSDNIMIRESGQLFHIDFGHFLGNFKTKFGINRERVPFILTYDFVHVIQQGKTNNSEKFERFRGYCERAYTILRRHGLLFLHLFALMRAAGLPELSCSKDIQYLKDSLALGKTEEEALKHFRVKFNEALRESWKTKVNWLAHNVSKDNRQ
T4 sequence (P42338 with tags, fused parts or gaps limits assumed): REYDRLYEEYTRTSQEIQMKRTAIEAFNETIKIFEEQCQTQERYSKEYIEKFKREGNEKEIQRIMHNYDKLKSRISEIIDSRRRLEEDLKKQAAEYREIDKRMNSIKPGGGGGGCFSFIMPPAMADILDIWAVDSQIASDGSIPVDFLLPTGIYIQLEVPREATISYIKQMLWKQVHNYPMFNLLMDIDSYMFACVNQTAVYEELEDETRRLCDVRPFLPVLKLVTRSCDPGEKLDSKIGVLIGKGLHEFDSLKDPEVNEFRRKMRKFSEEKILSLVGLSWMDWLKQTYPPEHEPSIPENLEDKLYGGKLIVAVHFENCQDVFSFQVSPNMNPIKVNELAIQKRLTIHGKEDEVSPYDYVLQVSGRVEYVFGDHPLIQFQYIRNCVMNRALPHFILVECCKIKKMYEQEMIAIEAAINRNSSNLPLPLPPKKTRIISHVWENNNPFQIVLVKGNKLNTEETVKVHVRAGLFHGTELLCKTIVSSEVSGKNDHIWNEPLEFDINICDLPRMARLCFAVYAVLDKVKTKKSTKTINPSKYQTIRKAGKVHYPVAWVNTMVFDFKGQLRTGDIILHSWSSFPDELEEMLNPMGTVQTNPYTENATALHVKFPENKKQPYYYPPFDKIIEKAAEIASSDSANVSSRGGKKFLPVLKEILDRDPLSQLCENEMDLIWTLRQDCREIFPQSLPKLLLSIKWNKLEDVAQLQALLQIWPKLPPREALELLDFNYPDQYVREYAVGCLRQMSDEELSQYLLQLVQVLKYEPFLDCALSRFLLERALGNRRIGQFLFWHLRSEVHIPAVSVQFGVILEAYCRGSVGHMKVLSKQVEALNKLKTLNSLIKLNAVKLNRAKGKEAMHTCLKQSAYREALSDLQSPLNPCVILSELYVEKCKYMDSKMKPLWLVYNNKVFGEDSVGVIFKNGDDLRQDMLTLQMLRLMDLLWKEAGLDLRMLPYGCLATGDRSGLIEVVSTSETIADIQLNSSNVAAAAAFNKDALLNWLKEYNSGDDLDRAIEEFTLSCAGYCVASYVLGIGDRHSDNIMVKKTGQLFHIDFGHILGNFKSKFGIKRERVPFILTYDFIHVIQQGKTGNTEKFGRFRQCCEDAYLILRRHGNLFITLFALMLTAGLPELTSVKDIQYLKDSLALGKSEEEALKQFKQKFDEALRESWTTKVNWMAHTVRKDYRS
T2 sequence (P42345 1360-2549 limits assumed): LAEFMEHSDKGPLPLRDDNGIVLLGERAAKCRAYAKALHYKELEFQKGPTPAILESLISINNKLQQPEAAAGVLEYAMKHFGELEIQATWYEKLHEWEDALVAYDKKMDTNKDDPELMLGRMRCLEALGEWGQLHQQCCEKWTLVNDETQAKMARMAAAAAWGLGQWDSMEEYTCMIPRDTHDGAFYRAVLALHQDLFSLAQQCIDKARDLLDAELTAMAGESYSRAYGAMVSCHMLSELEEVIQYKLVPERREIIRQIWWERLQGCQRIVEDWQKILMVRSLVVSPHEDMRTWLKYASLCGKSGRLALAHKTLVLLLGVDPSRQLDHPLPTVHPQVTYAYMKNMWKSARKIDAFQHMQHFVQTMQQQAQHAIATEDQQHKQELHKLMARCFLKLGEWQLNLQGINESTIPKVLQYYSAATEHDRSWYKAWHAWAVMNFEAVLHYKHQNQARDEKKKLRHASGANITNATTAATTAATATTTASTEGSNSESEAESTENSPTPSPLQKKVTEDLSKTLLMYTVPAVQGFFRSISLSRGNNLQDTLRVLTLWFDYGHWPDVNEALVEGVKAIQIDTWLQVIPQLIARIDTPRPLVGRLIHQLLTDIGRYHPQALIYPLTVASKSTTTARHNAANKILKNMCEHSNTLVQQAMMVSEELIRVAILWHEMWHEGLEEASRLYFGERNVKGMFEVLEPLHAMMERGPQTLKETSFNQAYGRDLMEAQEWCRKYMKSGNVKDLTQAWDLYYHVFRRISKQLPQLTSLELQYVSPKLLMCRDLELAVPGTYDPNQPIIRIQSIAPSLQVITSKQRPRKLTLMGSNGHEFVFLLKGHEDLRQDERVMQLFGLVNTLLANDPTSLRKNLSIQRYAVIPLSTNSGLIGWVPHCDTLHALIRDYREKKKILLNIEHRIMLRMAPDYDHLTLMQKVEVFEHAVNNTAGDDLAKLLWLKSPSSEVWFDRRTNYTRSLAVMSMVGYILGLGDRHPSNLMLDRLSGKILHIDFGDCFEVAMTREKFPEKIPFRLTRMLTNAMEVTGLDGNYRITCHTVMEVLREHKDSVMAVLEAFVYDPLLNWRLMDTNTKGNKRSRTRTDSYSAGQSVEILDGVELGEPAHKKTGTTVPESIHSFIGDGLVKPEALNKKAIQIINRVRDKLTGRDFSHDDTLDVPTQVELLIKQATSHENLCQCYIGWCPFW

In the case of `CCNc1ncc(-c2ccc3ncc4c(c3c2)n(-c2ccc(F)nc2C)c(=O)n4C)cn1` [Example 7.18, 8-(2-Ethylamino-pyrimidin-5-yl)-1-(6-fluoro-2-methyl-pyridin-3-yl)-3-methyl-1,3-dihydro-imidazo[4,5-c]quinolin-2-one], the pIC50 was 7.19 on PI3K alfa, 7.44 at mTOR, 7.55 on PI3K delta and 6.49 at PI3K beta.
For `CCNc1ncc(-c2ccc3ncc4c(c3c2)n(-c2ccc(N3CC(O)C3)nc2C)c(=O)n4C)cn1` [Example 29.7, 8-(2-Ethylamino-pyrimidin-5-yl)-1-[6-(3-hydroxy-azetidin-1-yl)-2-methyl-pyridin-3-yl]-3-methyl-1,3-dihydro-imidazo[4,5-c]quinolin-2-one], in that order: 7.31, 8.10, 7.62 and 6.47.
The matching figures for `CNc1ncc(-c2ccc3ncc4c(c3c2)n(-c2ccc(C(C)(C)O)nc2C)c(=O)n4C)cn1` [Example 31.2, 1-[6-(1-Hydroxy-1-methyl-ethyl)-2-methyl-pyridin-3-yl]-3-methyl-8-(2-methylamino-pyrimidin-5-yl)-1,3-dihydro-imidazo[4,5-c]quinolin-2-one]: 7.59, 8.22, 7.96 and 6.98.
The matching figures for `CCNc1ncc(-c2ccc3ncc4c(c3c2)n(-c2ccc(N3CC[C@H](O)C3)nc2C)c(=O)n4C)c(OC)n1` [Example 32.9, 8-(2-Ethylamino-4-methoxy-pyrimidin-5-yl)-1-[6-((S)-3-hydroxy-pyrrolidin-1-yl)-2-methyl-pyridin-3-yl]-3-methyl-1,3-dihydro-imidazo[4,5-c]quinolin-2-one]: 7.57, 7.68, 7.68 and 6.41.
In the case of `CCNc1ncc(-c2ccc3ncc4c(c3c2)n(-c2ccc(N3CC[C@H](O)C3)nc2C)c(=O)n4C)cn1` [Example 32.10, 8-(2-Ethylamino-pyrimidin-5-yl)-1-[6-((S)-3-hydroxy-pyrrolidin-1-yl)-2-methyl-pyridin-3-yl]-3-methyl-1,3-dihydro-imidazo[4,5-c]quinolin-2-one], the pIC50 is 7.36 at PI3K alfa, 7.82 at mTOR, 7.70 on PI3K delta and 6.40 on PI3K beta.
With `COCc1cc(-c2ccc3ncc4c(c3c2)n(-c2ccc(C(F)(F)F)nc2C)c(=O)n4C)cnc1N` [Example 33.3, 8-(6-Amino-5-methoxymethyl-pyridin-3-yl)-3-methyl-1-(2-methyl-6-trifluoromethyl-pyridin-3-yl)-1,3-dihydro-imidazo[4,5-c]quinolin-2-one], the pIC50 at PI3K alfa is 7.92; at mTOR, 7.22; at PI3K delta, 8.15; at PI3K beta it was 7.66.
On to `Cc1nc(C(F)(F)F)ccc1-n1c(=O)n(C)c2cnc3ccc(-c4cnc(N)c(CO)c4)cc3c21` [Example 33.5, 8-(6-Amino-5-hydroxymethyl-pyridin-3-yl)-3-methyl-1-(2-methyl-6-trifluoromethyl-pyridin-3-yl)-1,3-dihydro-imidazo[4,5-c]quinolin-2-one], for which the pIC50 on PI3K alfa was 7.39; at mTOR, 7.44; at PI3K delta it was 7.60; on PI3K beta, 7.25.
For `CNc1ncc(-c2ccc3ncc4c(c3c2)n(-c2ccc(C(F)(F)F)nc2C)c(=O)n4C)cc1COC` [Example 33.6, 8-(5-Methoxymethyl-6-methylamino-pyridin-3-yl)-3-methyl-1-(2-methyl-6-trifluoromethyl-pyridin-3-yl)-1,3-dihydro-imidazo[4,5-c]quinolin-2-one], in that order: 7.57, 7.15, 8.00 and 7.21.

(Values after US20100311714A1, “1H-IMIDAZO[4,5-c]QUINOLINONE COMPOUNDS” (priority 2009, published 2010).)
